Results: patent publication US11813306B2, “Cyclic tetramer compounds as proprotein convertase subtilisin/kexin type 9 (PCSK9) inhibitors for the treatment of metabolic disorders” (NOVARTIS AG, priority 2018, dated 2023)

Molecular target: human PCSK9 (Homo sapiens, UniProt Q8NBP7)
Test: PCSK9 ligand binding assay (TR-FRET): interference with binding of human PCSK9 to human LDLR
Details: for IC50: Human PCSK9 Alexa Fluor 647 / Human LDLR extracellular domain-Europium Kryptate; for Max % inhibition: efficacy (Amax), 100% = 1 uM unlabeled human PCSK9, 0% = DMSO
Procedure: Example 10: PCSK9 Ligand Binding Assay
The PCSK9 binding of the compounds of the disclosure were measured using a time resolved fluorescence resonance energy transfer (TR-FRET) assay. This time resolved fluorescence resonance energy transfer (TR-FRET) assay measures the ability of a compound of the present disclosure to interfere with the binding of human PCSK9 to human LDLR, providing measures of both potency (IC50) and efficacy (Amax).
Human PCSK9 Alexa Fluor 647
Human LDLR extracellular domain-Europium Kryptate
Proxi plate-low volume assay plate (PerkinElmer #6008280)
Greiner V-bottom (Greiner BioOne #781280)
Assay Buffer • 20 mM HEPES, pH 7.5 • 150 mM NaCl • 1 mM CaCl2 • 0.01% v/v Tween20 • 0.01% w/v BSA
A master compound plate was prepared in a Greiner V bottom plate by diluting compounds of the disclosure in dimethylsulfoxide to the correct concentration for the desired top concentration based on the desired final concentration: for a 30 uM final concentration the master plate concentration is 1.5 mM (68 uL DMSO+12 uL 10 mM of a compound of the disclosure), for a 10 uM final concentration the master plate concentration is 0.5 mM (76 uL DMSO+4 uL 10 mM of a compound of the disclosure), for a 3 uM final concentration the master plate concentration is 150 uM (69 uL DMSO+1 uL 10 mM of a compound of the disclosure). These solutions were pipetted into columns 1 and 11 of the compound plate. Threefold serial dilutions were generated in columns 2-10 and 12-20 of the compound plate by transferring 10 uL into 20 uL of DMSO. Columns 21 and 22 of the compound plate were negative controls containing DMSO alone.
An intermediate plate was generated in a Greiner V bottom plate by transferring 8 uL from each well of the master plate into a corresponding well containing 92 uL of assay buffer and mixing thoroughly.
A Proxi plate-low volume assay plate was used for the assay. To all wells of the plate was added 10 uL of 16 nM Human PCSK9 Alexa Fluor 647, followed by 5 uL from the intermediate plate. For the positive control wells in columns 23 and 24 of the plate, 5 uL of unlabeled human PCSK9 was added at 4 uM in assay buffer containing 8% DMSO. Following a 30 minute incubation, 5 uL of 4 nM Human LDLR extracellular domain-Europium Kryptate was added and the mixture was incubated for an additional 2 hours.
The TR-FRET signal was measured on an EnVision or PheraStar instrument with a 60 ms delay, 330 nm excitation and 665 nm emission (FRET), and 330 nm excitation and 615 nm (Europium). The FRET ratio (FRET/Europium) was used for calculations.
No inhibition (0%) was observed from the wells containing DMSO (Control) in columns 21 and 22 of the compound plate. Full inhibition (100%) was observed from the wells containing 1 uM human PCSK9 (Control) in columns 23 and 24 of the plate. Data is expressed as percent inhibition: (value—0%)/(100%-0%).

human PCSK9, sequence (Q8NBP7 153-692): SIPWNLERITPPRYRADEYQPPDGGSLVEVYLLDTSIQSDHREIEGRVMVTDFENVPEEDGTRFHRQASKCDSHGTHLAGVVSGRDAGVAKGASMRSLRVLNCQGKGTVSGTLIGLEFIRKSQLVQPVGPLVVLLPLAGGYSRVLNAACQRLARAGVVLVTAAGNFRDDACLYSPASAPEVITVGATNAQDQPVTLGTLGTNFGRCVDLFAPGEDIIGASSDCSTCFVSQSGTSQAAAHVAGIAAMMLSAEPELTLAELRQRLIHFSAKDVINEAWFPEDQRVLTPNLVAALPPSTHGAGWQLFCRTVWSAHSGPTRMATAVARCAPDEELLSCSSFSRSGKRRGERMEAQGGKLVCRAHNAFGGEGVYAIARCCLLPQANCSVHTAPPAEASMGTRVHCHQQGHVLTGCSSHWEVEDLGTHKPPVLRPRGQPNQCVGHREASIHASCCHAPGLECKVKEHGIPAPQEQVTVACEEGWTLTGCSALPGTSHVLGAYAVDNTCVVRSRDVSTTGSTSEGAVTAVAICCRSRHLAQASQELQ
human PCSK9, sequence (Q8NBP7 31-152 partner limits assumed): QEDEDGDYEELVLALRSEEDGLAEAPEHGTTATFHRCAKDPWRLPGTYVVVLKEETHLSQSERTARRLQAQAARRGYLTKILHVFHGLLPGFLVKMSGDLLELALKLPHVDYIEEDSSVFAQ

SMILES | IC50 | Max % inhibition
COC[C@@H]1NC(=O)[C@H](C)N(Cc2ccc(Cl)cc2Oc2ccc(-c3cnc(CN4CCC4)n3C)cc2)C(=O)C[C@@H](CC(F)(F)F)C(=O)N2CCC[C@@](Cc3ccc(Cl)cc3)(C2)NC1=O [Compound 33, (3S,7S,10S,13R)-6-(2-(4-(2-(Azetidin-1-ylmethyl)-1-methyl-1H-imidazol-5-yl)phenoxy)-4-chlorobenzyl)-13-(4-chlorobenzyl)-10-(methoxymethyl)-7-methyl-3-(2,2,2-trifluoroethyl)-1,6,9,12-tetraazabicyclo[11.3.1]heptadecane-2,5,8,11-tetraone] | 1.05 nM | 113.0%
C[C@H]1C(=O)N[C@@H](CO)C(=O)N(C)[C@@]2(Cc3ccc(Cl)cc3)CCCN(C2)C(=O)[C@H](Cc2ccccc2)CC(=O)N1Cc1c(F)cc(Cl)cc1Oc1ccc(-c2cnc(CN(C)C)n2C)cc1 [Compound 79, (3R, 7S, 10S, 13R)-3-benzyl-6-(4-chloro-2-(4-(2-((dimethylamino)methyl)-1-methyl-1H-imidazol-5-yl)phenoxy)-6-fluorobenzyl)-13-(4-chlorobenzyl)-10-(hydroxymethyl)-7,12-dimethyl-1,6,9,12-tetraazabicyclo[11.3.1]heptadecane-2,5,8,11-tetraone] | 0.819 nM | 108.3%
C[C@H]1C(=O)N[C@@H](CO)C(=O)N[C@@]2(Cc3ccc(Cl)cc3)CCCN(C2)C(=O)[C@H]([C@@H]2CCc3ccccc32)CC(=O)N1Cc1ccc(Cl)cc1Oc1ccc(-c2cnc(CN3CCCC3)n2C)cc1.Cl [Compound 74, (3S, 7S, 10S, 13R)-6-(4-chloro-2-(4-(1-methyl-2-(pyrrolidin-1-ylmethyl)-1H-imidazol-5-yl)phenoxy)benzyl)-13-(4-chlorobenzyl)-3-((S)-2,3-dihydro-1H-inden-1-yl)-10-(hydroxymethyl)-7-methyl-1,6,9,12-tetraazabicyclo[11.3.1]heptadecane-2,5,8,11-tetraone] | 1.73 nM | 99.1%

Further lines, results first:

IC50 | Max % inhibition | SMILES
0.621 nM | 109.2% | COC[C@@H]1NC(=O)[C@H](C)N(Cc2ccc(Cl)cc2Oc2ccc(-c3cnc(CN(C)C)n3C)cc2)C(=O)C[C@@H](Cc2ccccc2)C(=O)N2CCC[C@@](Cc3ccc(Cl)cc3)(C2)N(C)C1=O [Compound 65, (3R, 7S, 10S, 13R)-3-benzyl-6-(4-chloro-2-(4-(2-((dimethylamino)methyl)-1-methyl-1H-imidazol-5-yl)phenoxy)benzyl)-13-(4-chlorobenzyl)-10-(methoxymethyl)-7,12-dimethyl-1,6,9,12-tetraazabicyclo[11.3.]heptadecane-2,5,8,11-tetraone]
2.66 nM | 104.3% | CN(C)Cc1ncc(-c2ccc(Oc3cc(Cl)ccc3CN3C(=O)C[C@@H](Cc4ccccc4)C(=O)N4CCC[C@@](Cc5ccc(Cl)cc5)(C4)NC(=O)[C@H](CO)NC(=O)[C@@H]3CCN)cc2)n1C [Compound 178, (3R,7S,10S,13R)-7-(2-aminoethyl)-3-benzyl-6-(4-chloro-2-(4-(2-((dimethylamino)methyl)-1-methyl-1H-imidazol-5-yl)phenoxy)benzyl)-13-(4-chlorobenzyl)-10-(hydroxymethyl)-1,6,9,12-tetraazabicyclo[11.3.1]heptadecane-2,5,8,11-tetraone]
1.84 nM | 69.1% | CCOCCOCCOCc1ncc(-c2ccc(Oc3cc(Cl)ccc3CN3C(=O)N[C@@H](Cc4ccccc4)C(=O)N4CCC[C@@](Cc5ccc(Cl)cc5)(C4)NC(=O)[C@H](CO)NC(=O)[C@@H]3C)cc2)n1C.Cl [Compound 104]
